This note sets out measurements from a melting point compilation (Tetko et al.; mined from patent text by program, amines drawn as free bases though some values may be those of a salt).

Where only a bound is given, the exact number is not on record here.

The term melting point denotes the temperature of the solid-liquid transition.

`Nc1cc(-n2nc3ccc(Cl)cn3c2=O)c(F)cc1Cl` came in with a melting point of 247 to 250 °C.
`COC1=CC(=O)C2=C(C1=O)C1CCC2C1` (stereo not drawn): the melting point fell in the range of 106 to 108 °C.
`C#Cc1cc(Oc2cnc(NC(CO)CO)nc2N)c(C(C)C)cc1OC` gave a melting point of 136 to 139 °C.
For the compound `O=C1CC2(C(=O)N1)C(=O)N(Cc1ccc(Cl)c(Cl)c1)c1ccc(Cl)cc12` (stereo not drawn), the melting point was 268 to 270 °C.
`COc1cc(Cc2cnc(NCCCCc3ncc(Br)cc3C)[nH]c2=O)ccn1` came in with a melting point of 120 to 121 °C.
For `CC1Cc2cc3c(cc2C(c2ccc([N+](=O)[O-])cc2)=NN1C(=O)CBr)OCO3` (stereo not drawn) the value was 183 to 186 °C; for `Cc1cc(Nc2ccnc(Nc3ccc(S(=O)(=O)N(C)C4CCCN(C)C4)cc3)n2)ccc1F` (stereo not drawn), 188 °C; for `CC(C)c1ccc(C(=O)C(C)c2ccccc2)c(C(C)C)c1OS(N)(=O)=O` (stereo not drawn), 142 to 144 °C.
`CCCCNC(=O)C1CCCCC1(O)C(=O)c1ccc(OC)cc1` (stereo not drawn) had a melting point of 94 to 95 °C.
For `O=C(O)CCc1ccc2c(c1)oc1ccc(Cl)cc12` the value was 174 to 178 °C; for `COc1c(Cl)cc(C(=O)O)c2c1OCCO2`, 172 °C; for `O=C(Cc1ccccc1)NC1C(=O)N2CC(C(=O)OCc3ccccc3)SC12` (stereo not drawn), 130 to 132 °C.
`CC(C)(C)OC(=O)N[C@@H](Cc1ccc(O)cc1)C(=O)NCC(=O)NCC(=O)O`: the melting point was in the range of 92 to 94 °C.
For `CCCCn1ccc(-c2ccc(C(=O)N3Cc4cccn4Cc4ccccc43)cc2)n1` the value was 122 to 123 °C; for `CCOc1ccc(-c2ccc3c(c2)C=C(C(=O)Nc2ccc(CN(C)C4CCOCC4)cc2)CCS3(=O)=O)cc1F`, 233 to 235 °C; for `CCOC(=O)CCCCC(=O)c1ccc2cc(O)ccc2c1`, 139 to 142 °C.
Consider `CC1=N/C(=C\c2c[nH]c3ncccc23)C(=O)N1CCN1CCOCC1`, for which the melting point was in the range of 235 to 240 °C.
Take `CCOC(=O)n1cc(C#N)c(-c2ccc(F)c(Cl)c2F)c1`: the melting point is 132 °C.
As to `COc1ccc2c(c1)c(S(=O)(=O)c1ccccc1)cn2CCCl`, the melting point was in the range of 148 to 150 °C.
The compound `NS(=O)(=O)c1cscn1` had a melting point of 142 to 146 °C.
In turn, `CC(=O)c1c(-c2ccccc2)nn2ccccc12` gave a melting point of 84 to 85 °C.
`Nc1cc(F)c(F)c(Br)c1Cl` returned a melting point of 83 to 86 °C.
Compound `COC(=O)c1ccc(Cl)nc1C1=NC(=O)C(C)(C(C)C)N1` (stereo not drawn) displayed a melting point of 102 to 104 °C.
Regarding `N#CCc1cccc2c1C=CN(C(=O)c1ccccc1)C2C#N` (stereo not drawn), the melting point fell in the range of 66.4 to 69.7 °C.
With `CC1=Cc2ccc(Cl)cc2C(c2ccc([N+](=O)[O-])c(C)c2)=NN1C(=O)Oc1ccccc1`, the melting point fell in the range of 188 to 190 °C.
The figure for `N#CC(N)COc1ccccc1` (stereo not drawn) is 65 °C; for `CCCOC(=O)c1cc(=O)c2cc(OCc3cccc(OCc4ccc5ccccc5n4)c3)ccc2o1` it is 109 to 110 °C; for `CCCCCCCCCCCCCCOc1ccc(OCc2ccccc2)c(C(=O)OC)c1` it is 43 to 46 °C.
Take `FCC(F)(F)Sc1nc(-c2ccccc2)c(-c2ccccc2)[nH]1`: the melting point lay in the range of 225 to 226 °C.
As to `[N-]=[N+]=NC(=O)c1ccc2c(c1)C(=O)OC2=O`, the melting point lay in the range of 100 to 103 °C.
Consider `COc1cc(Nc2ncnc3cc(OCC4CCCCO4)c(OC)cc23)c(OC)cc1Cl` (stereo not drawn), for which the melting point lay in the range of 203 to 209 °C.
`Cc1nc(-c2ccc(C#N)cc2)sc1C(=O)N1CC(O)O[C@@](Cn2cncn2)(c2ccc(F)cc2F)[C@H]1C` (stereo partly drawn) returned a melting point of 225 to 228 °C.
Take `CCc1nc(N)nc(N)c1-c1ccc(N(Cc2ccccc2)Cc2ccccc2)c([N+](=O)[O-])c1`: the melting point was in the range of 197 to 199 °C.
As to `O=C(Nc1ccc(CN2CCOCC2)cc1)C1=Cc2cc(-c3ccccc3)ccc2CC1`, the melting point is 186 to 187 °C.
Regarding `OC(C#CI)(c1ccc(-c2ccccc2)cc1)c1cccc(Cl)c1` (stereo not drawn), the melting point was in the range of 99 to 100 °C.
The figure for `CCOc1ccc(C(=O)NCc2ccc3c(c2)C(=O)N(C2CCC(=O)NC2=O)C3=O)nn1` (stereo not drawn) is 238 to 240 °C; for `CC(=O)Oc1c(-c2ccc(=O)[nH]n2)cc(Br)c(C)c1Br` it is 220 °C.
In turn, `COc1nc(NS(=O)(=O)c2ccccc2Cl)nc(OC)n1` came in with a melting point of 137 °C.
For `CC(C)(C)SC1CN(C(=O)NCCN2C(=O)c3ccccc3C2=O)CC1NS(=O)(=O)c1ccc(Oc2ccccc2)cc1` (stereo not drawn), the melting point lay in the range of 105 to 106 °C.
As for `CC(C)(C#N)c1cc(C(C)(C)C#N)cc(C(C)(C)n2cncn2)c1`, the melting point was 185 to 188 °C.
The figure for `CCOC(=O)C=Cc1ccc(CCNS(=O)(=O)CCc2ccccc2)cc1` is 98 to 99 °C; for `C#CCC(O)(c1cncnc1)C(C)(C)C` (stereo not drawn) it is 174 to 176 °C; for `CCCCCCCC(=O)Oc1ccc2nc(S(N)(=O)=O)sc2c1` it is 114 °C.
In turn, `OCC1N=c2c(ccc3c2=CC=N3)O1` (stereo not drawn) showed a melting point of 169 to 172 °C.
`Cc1ccc(Oc2ccc(C3=CC=CN4CCS(=O)(=O)N=C34)cc2)cc1` returned a melting point of 248 to 249 °C.
As for `CCCCCC(=O)Nc1ccc(C(=O)NN=C2C(=O)Nc3ccc(I)cc32)cc1`, the melting point was 305 °C.
The compound `CS(=O)(=O)c1ccc(C(CC2CCCC2)C(=O)Nc2ncc(C(=O)O)s2)cc1` (stereo not drawn) showed a melting point of 172 to 176 °C.
The figure for `CC(C(=O)O)c1ccc2oc(-c3ccccc3)nc2c1` (stereo not drawn) is 177 to 179 °C; for `O=C(COc1ccccc1)NC1CNC1=O` (stereo not drawn) it is 153 to 155 °C; for `C=Cn1cc(C(=O)O)c(=O)c2cnc(N3CCN(C)CC3)nc21` it is 233 to 234 °C.
In the case of `O=C1C(=Cc2cc(Br)cs2)CCc2cc(OCCn3ccnc3)ccc21`, the melting point was in the range of 164 to 166 °C.
`CCCc1c(OCc2cccc(OCc3ccc4ccccc4n3)c2)ccc2c(=O)cc(C(=O)OCC)oc12` showed a melting point of 120 to 121 °C.
For `COc1cccc2c(Nc3ccccc3C)nc(Cl)nc12` the value was 218 to 220 °C; for `OCc1c(Br)c(Br)c(CO)c(Br)c1Br`, 248 °C; for `OOC1(OO)C2CC3CC(C2)CC1C3`, 144 to 145 °C.
Consider `CC1Cc2cc(S(=O)(=O)n3cc(-c4ccccc4)[nH]c3=O)ccc2N1C(=O)CCl` (stereo not drawn), for which the melting point was 157 to 159 °C.
The figure for `COc1cc(CO)ccc1OCc1nc(-c2cccc(OS(C)(=O)=O)c2)oc1C` is 140 to 141 °C.
Compound `COc1cc(C=O)cc2c1OC1(CCCC1)C2` returned a melting point of 54 °C.
`C#CCOc1noc2c1CN(C(=O)OC(C)(C)C)CC2`: the melting point is 107 to 108 °C.
With `CCCCCCC(=O)Nc1c(Sc2cc(C)cc(C)c2)c(C)c[nH]c1=O`, the melting point was in the range of 212 to 213 °C.
In turn, `Cc1cc(C)cc(Nc2nnc(Cc3ccncc3)c3ccccc23)c1` displayed a melting point of 174 to 175 °C.
As to `CN(CSC(C)(C)CC(C)(C)C)C(=O)Nc1cccc(C(F)(F)F)c1`, the melting point fell in the range of 52 to 54 °C.
The compound `O=C(NC1CCCCC1)n1cc(F)c(=O)[nH]c1=O` showed a melting point of 276 to 278 °C.
For `OCc1nn(C(c2ccccc2)(c2ccccc2)c2ccccc2)c2ccccc12` the value was 192 to 193 °C.
In turn, `COC(=O)c1cc(S(=O)(=O)c2ccc(C)cc2)cc2c1OC(c1ccc(OC)cc1)(c1ccc(OC)cc1)O2` came in with a melting point of 79 to 82 °C.
`O=C(O)CCC(CCC(=O)O)(CCC(=O)O)C(=O)c1ccc(Cl)cc1` came in with a melting point of 135 to 137 °C.
`NNC1=Nc2ccc(Cl)cc2C(c2ccccc2F)S(=O)(=O)CC1` (stereo not drawn) came in with a melting point of 159 °C.
`Cc1ncc(CCCOc2c(C)cc(-c3noc(C(F)(F)F)n3)cc2C)s1` gave a melting point of 62 to 64 °C.
The figure for `O=C(Cc1ccccc1[N+](=O)[O-])c1c(O)c2cccnc2n(-c2ccccc2)c1=O` is 194 to 195 °C; for `CC(=O)C(C(=O)Nc1ccccc1)C(C)C` (stereo not drawn) it is 135 to 137 °C; for `NCc1cc(-c2csc(N=C(N)N)n2)ccn1` it is more than 210 °C.
Take `CCn1cc(C(=O)O)c(=O)cc1-c1ccc(N2CCCC2)cc1`: the melting point is 276 to 278 °C.
`CCOC(=O)[C@@H]1CCCN1C(=O)C1=Cc2ccccc2CC1` came in with a melting point of 55 to 57 °C.
The compound `NC(=S)NCCSCc1c[nH]cn1` had a melting point of 135 to 137 °C.
For `COc1ccc(-n2nc(Br)cc2-c2ccc(SC)cc2)cc1` the value was 144 to 145 °C; for `C#CCN(C(C)=O)c1cccc(-c2ccc3nncn3n2)c1`, 195 to 198 °C.
As for `CC(SC1COC(c2ccc(C(=O)Nc3ccc(C#N)c(Cl)c3)cc2)OC1)C(O)(Cn1cncn1)c1ccc(F)cc1F` (stereo not drawn), the melting point is 115 °C.
On to `CCCCCCc1ccc(C#Cc2ccc(C=O)cc2)cc1`, for which the melting point worked out at 67 °C.
`COc1ccc(CC(C#N)=CNc2ccccc2)c2ccccc12`: the melting point fell in the range of 188 to 189 °C.
Compound `CCSc1cc(C)nc(SCC)c1NC(=O)CCCCCCSc1nc2c(C)c(Cl)cc(C(C)C)c2o1` yielded a melting point of 117 to 120 °C.
Regarding `CCCCCCCCCCCN(CC)C(=O)N(O)O`, the melting point was 42 to 43 °C.
The compound `CC(=O)OC1OCC[C@@H]1NC(=O)[C@H](CC(C)C)NC(=O)[C@H](CC(C)C)NC(=O)c1ccc2c(c1)Nc1ccccc1S2` (stereo partly drawn) returned a melting point of 121 to 122 °C.
For `Nc1ccc2c3c(cccc13)C(=O)N(O)C2=O`, the melting point is more than 360 °C.
The figure for `NC(=O)CC1Cc2cc(Br)cc3[nH]c(=O)c(=O)n1c23` (stereo not drawn) is more than 300 °C; for `Oc1ccc(-c2ncc3ncc(-c4ccncc4)cc3n2)cc1` it is more than 268 °C.
Compound `NC(=O)[C@H]1NC(=O)[C@H]1NC(=O)OCc1ccccc1` registered a melting point of 248 to 249 °C.
In turn, `COC(=O)CCc1ccc(OCc2nc(-c3ccccc3)c(-c3ccccc3)o2)cc1` displayed a melting point of 92 to 95 °C.
`CCOP(=O)(OCC)C(F)(F)c1ccc(CN(Cc2ccc(C(F)(F)P(=O)(OCC)OCC)cc2)C(=O)c2ccccc2)cc1` came in with a melting point of 87 to 89 °C.
